Measured values: US20210169984A1, “SENSITIZING CANCER TO DEATH RECEPTOR AGONISTS WITH KINASE INHIBITORS” (The Johns Hopkins University, priority 2016, published 2021)

How the values were obtained:
cancer patients = conditions: cited from earlier work
[1] = in vivo; cited from earlier work
[2] = mouse, in vivo; cited from earlier work
[3] = test system: TRAIL-resistant cancer cells (HT29, MDA-MB-231, LNCAP, DU145, PC3, A549); assay: Cell death after TRAIL / TRAILPEG alone in various cancer cells (FIG. 2A); format: cell-based, human; conditions: TRAIL 1 μg/mL for 24 hours
Protocol: Quantified cell death data after TRAIL (1 μg/mL) treatment for 24 hours in various cancer cell types are shown. Human tumor cell lines include: colon (HT-29, SW620, HCT116), prostate (PC3), breast (MDA-MD-231, MCF-7), lung (A549). HCT116 represents a TRAIL-sensitive colorectal tumor for comparison. HEK293T is a normal human kidney cell line.
A library of KIs was screened for TRAIL sensitization in various TRAIL-resistant cancer cells, including: HT29 (CRC), MDA-MB-231 (breast), LNCAP (prostate), DU145 (prostate), PC3 (prostate) and A549 (lung). […] The 355 KIs comprised of compounds targeting diverse kinases, including multi kinases, RTK (receptor kinase tyrosine), PI3K (phosphinistide 3-kinase), aurora kinases, including […] (mitogen-activated protein kinase). […] The interaction between KIs and TRAIL had been previously explored in vitro with the tyrosine KI sorafenib, a drug similar to regorafenib. However, such studies were mostly performed on cellular levels and not in in vivo models, combined with systemically administered recombinant TRAIL. Although a similar structure, regorafenib was newly approved in 2012. The interactions between the three other selected KIs and TRAIL have not been previously reported, in vitro or in vivo.

Row | Substance | therapeutic benefit (cancer patients; cancer patients, monotherapy studies) | anticancer activity (cancer patients; combined with chemotherapy, lung and colon cancer patients) | tolerability (cancer patients; human, in vivo) | half-life [1] | circulating half-life [2] | TRAIL-induced apoptosis (cell death) by TRAIL [3]
1 | dulanermin: recombinant TRAIL, native-type, short-acting | failed to demonstrate a robust therapeutic benefit | did not reveal improved anticancer activity | broad tolerability | 5 min | – | –
2 | TRAIL: Tumor necrosis factor (TNF)-related apoptosis-inducing ligand, member of the TNF family | – | – | – | – | 1.1 h | resistance to TRAIL-induced apoptosis
